Laboratory results: ChEMBL document CHEMBL1201862, “PubChem BioAssay data set” (2004)
Active and inactive are the calls of the source.

Assays:
NADPH oxidase 1 [1] = target: T1, NADPH oxidase 1 (Homo sapiens, UniProt Q9Y5S8); test: Late stage results from the probe development effort to identify inhibitors of NOX1: HEK/293 IC50. [Related pubchem assays: 1796 (Summary AID (NOX1)), 2752 (Primary screen (NOX1 inhibitors, synthesized analogs set 2)), 2664 (Primary screen (NOX1 inhibitors, synthesized analogs)), 1792 (Primary Screen (NOX1)), 2545 (Confirmation screen (NOX1 …; type: functional
NADPH oxidase 1 [2] = target: T1, NADPH oxidase 1; test: potency of NOX1 inhibition in cells – cell-based, luminescence, cherry picks 2, dose response (AID 434997); type: functional
[3] = target: Sphingosine 1-phosphate receptor 2 (Homo sapiens, UniProt O95136); test: Dose Response Cell Based Assay for Antagonists of the S1P2 Receptor. [Related pubchem assays: 856, 736 ]; type: functional
Danio rerio = test: In Vivo Angiogenesis Dose-Response Confirmation. [Related pubchem assays: 732 (Assay preceding this confirmatory assay.)]; type: functional, organism-based
[4] = M. tuberculosis growth inhibition, HTS (AID 449762); type: functional
[5] = microbe, parasite or virus in culture; type: functional; settings: Mycobacterium tuberculosis
[6] = target: E3 ubiquitin-protein ligase Mdm2 (Homo sapiens, UniProt Q00987); test: MDM2-luc reporter signal enhancers, multi-concentration potency testing, MDM2 ubiquitin-protein ligase inhibitor program, whole-cell format, luminescence detection, 384-well microplate (AID 1394); type: functional;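 note: MDM2 E3 inhibitors raise luminescence so EC50 is for signal enhancement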
[7] = Luminescent dose response cell-based high throughput screening assay for inhibitors of the Janus kinase 2 mutant JAK2V617F. [Related pubchem assays: 1446 (Primary screen.), 1521 (Confirmation assay.), 1486 (Counter screen.)]; type: functional
[8] = target: Heat shock protein HSP 90-alpha (Homo sapiens, UniProt P07900); type: functional, organism-based
[9] = IC50 of insulin release inhibition, rat insulinoma INS-1E line, 5 mM glucose, cell-based (AID 1117331); type: functional
[10] = target: Bifunctional protein GlmU (Mycobacterium tuberculosis, UniProt P9WMN3); test: Inhibitors of Mycobacterial Glucosamine-1-phosphate acetyl transferase (GlmU). Secondary screen.; design: species or system Mycobacterium tuberculosis H37Rv
[11] = Potency on glucagon-like peptide 1 release, dose-response in NCI-H716 cell line, half maximal inhibitory concentration (AID 1117344); type: functional, cell-based

T1 sequence (Q9Y5S8 whole entry): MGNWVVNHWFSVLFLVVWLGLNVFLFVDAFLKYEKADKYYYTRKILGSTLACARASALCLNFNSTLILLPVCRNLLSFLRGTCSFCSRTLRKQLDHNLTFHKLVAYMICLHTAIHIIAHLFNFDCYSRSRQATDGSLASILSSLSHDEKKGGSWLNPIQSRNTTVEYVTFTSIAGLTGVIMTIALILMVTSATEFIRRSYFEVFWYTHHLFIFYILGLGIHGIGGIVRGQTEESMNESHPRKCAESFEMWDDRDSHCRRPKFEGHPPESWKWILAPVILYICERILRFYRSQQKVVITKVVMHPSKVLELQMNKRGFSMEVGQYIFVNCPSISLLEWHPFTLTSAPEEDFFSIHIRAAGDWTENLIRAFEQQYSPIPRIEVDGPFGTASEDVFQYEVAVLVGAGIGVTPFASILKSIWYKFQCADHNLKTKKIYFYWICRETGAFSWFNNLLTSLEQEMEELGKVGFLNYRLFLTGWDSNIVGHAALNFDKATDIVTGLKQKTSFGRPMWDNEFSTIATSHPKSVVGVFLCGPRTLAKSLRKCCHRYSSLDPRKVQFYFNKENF
Sequence of Sphingosine 1-phosphate receptor 2 (O95136 whole entry): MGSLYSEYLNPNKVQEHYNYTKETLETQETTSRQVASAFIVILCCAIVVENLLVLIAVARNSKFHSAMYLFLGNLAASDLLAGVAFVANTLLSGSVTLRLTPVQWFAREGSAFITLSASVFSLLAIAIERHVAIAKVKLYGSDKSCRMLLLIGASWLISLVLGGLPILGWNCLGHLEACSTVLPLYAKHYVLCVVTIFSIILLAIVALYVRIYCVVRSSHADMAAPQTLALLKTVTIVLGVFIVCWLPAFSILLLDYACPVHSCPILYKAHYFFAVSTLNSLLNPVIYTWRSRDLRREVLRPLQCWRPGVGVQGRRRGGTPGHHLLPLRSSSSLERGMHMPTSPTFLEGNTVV
Sequence of E3 ubiquitin-protein ligase Mdm2 (Q00987 whole entry): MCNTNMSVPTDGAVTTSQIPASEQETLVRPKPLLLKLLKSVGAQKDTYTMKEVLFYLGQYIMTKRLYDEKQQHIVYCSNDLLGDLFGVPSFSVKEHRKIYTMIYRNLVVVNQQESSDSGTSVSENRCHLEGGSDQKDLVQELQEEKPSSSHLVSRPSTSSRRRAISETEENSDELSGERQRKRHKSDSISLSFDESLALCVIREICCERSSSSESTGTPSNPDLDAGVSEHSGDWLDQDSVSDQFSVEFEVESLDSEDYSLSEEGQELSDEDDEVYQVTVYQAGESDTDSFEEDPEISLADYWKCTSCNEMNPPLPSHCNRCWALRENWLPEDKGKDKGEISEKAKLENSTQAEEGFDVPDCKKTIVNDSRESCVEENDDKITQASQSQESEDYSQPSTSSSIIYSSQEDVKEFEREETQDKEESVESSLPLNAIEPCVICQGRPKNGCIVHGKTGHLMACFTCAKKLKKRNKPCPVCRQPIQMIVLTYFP
Sequence of Bifunctional protein GlmU (P9WMN3 whole entry): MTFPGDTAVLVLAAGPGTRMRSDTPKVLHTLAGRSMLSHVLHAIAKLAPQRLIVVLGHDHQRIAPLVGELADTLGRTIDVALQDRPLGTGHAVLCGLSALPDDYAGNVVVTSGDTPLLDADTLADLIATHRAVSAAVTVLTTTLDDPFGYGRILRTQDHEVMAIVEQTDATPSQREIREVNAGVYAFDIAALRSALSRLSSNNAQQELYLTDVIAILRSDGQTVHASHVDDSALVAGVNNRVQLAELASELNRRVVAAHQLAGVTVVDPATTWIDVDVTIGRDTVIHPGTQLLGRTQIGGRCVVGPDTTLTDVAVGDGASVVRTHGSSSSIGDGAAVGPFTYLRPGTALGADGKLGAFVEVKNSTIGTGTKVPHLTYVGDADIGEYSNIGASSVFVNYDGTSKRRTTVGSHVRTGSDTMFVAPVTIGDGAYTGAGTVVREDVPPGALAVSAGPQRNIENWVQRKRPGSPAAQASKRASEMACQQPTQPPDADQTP

SMILES: CN(C)c1ccc(NC(=O)Nc2ccc(OCc3ccccc3)cc2)cc1
- IC50 (NADPH oxidase 1 [1]): 2.37 µM (active)
- IC50 (NADPH oxidase 1 [2]): 230 nM (active)

SMILES: Cc1nc(-c2cccs2)sc1C(=O)Nc1ccc(F)cc1
- IC50 [3]: > 30 µM (not active)

SMILES: Cc1cccc2c1NC(=O)/C2=C1\Nc2ccccc2C1=O
- IC50 (Danio rerio): 1.23 µM (active)

SMILES: CCOc1cc(/C=N\NC(=O)Cn2nc([N+](=O)[O-])cc2C)ccc1OCc1cccc2ccccc12
- IC50 [4]: > 100 µM (active)
- CC50 [5]: > 40 µM (active)

SMILES: CN(C)C(=S)SSC(=S)N(C)C [THIRAM]
- EC50 [6]: 180 nM (active)
- IC50 [7]: 223 nM (active)
- AC50 [8]: 7.74 µM (active)
- IC50 [9]: > 33.3 µM (inactive)
- IC50 [10]: 89.3 µM (active)
- IC50 [11]: > 40 µM (inactive)
